Laboratory results: US10537557B2, “Methods of treating respiratory disorders” (CASE WESTERN RESERVE UNIVERSITY, priority 2016, dated 2020)

Experiments:
[1] = tested on: hyperoxia-exposed mice; experiment: Lung mechanics: methacholine challenge after neonatal hyperoxia (BPD model), flexiVent Rrs; type: in vivo, C57BL/6 mice; settings: for Rrs in response to aerosolized methacholine challenge (airway hyperreactivity): 3-week-old mice raised in hyperoxia (60%), compared with room air controls; for Rrs increase in hyperoxia, methacholine dose response (FIG. 5A-B): at 3 weeks and after room air recovery at 6 weeks of age; for Rrs in response to aerosolized methacholine challenge (airway hyperresponsiveness): six-week-old mice, 3 weeks neonatal hyperoxia then room air recovery
Protocol: Animal protocols were approved by the Institutional Animal Care and Use Committee at Case Western Reserve University (Cleveland, Ohio). Timed pregnant C57BL/6 mice (Charles River Laboratories, Wilmington, Mass.) were maintained on 12-hour light-dark cycles with ad libitum standard food and water. Within 24 hours of birth, litters were pooled and randomized into exposure groups. Paired with a nursing dam, pups were raised in 60% oxygen or room air (21%) for 21 days. Hyperoxia-exposed animals were housed in standard cages placed in a 38-L Plexiglas chamber with a continuous flow of blended oxygen (2 L/min). Oxygen concentrations were monitored twice daily via an oxygen analyzer (miniOX I; MSA Medical, Gurnee, Ill.). To control for oxygen exposures, nursing dams were rotated between paired litters during weekly cage changes. Ventilator studies were conducted and/or tissue harvested within 24 hours of removal from hyperoxia at 3 weeks. A subgroup of animals was returned to room air following 3 weeks of initial hyperoxia exposure and subsequently recovered to 6 weeks of age for adult lung mechanic and GSNOR activity studies.
N6022 is a selective small molecule reversible inhibitor of GSNOR. Powdered N6022 (Nivalis Therapeutics, Boulder, Colo., purchased through MedChem Express, Monmouth Junction, N.J.) was reconstituted in sterile PBS (pH 7.4) and administered to hyperoxia exposed mice as a single 1 mg/kg i.p. injection the day prior to testing lung mechanics.
Under general anesthesia (i.p. ketamine/xylazine), mice were placed supine on a heated surgical table, tracheostomized, and ventilated via a 19-gauge blunt-tip cannula with a commercial rodent ventilator (flexiVent; SCIREQ, Montreal, Canada). Animals were paralyzed (i.p. pancuronium bromide; Sigma-Aldrich) and ventilated at default settings: tidal volume of 10 mL/kg, a rate of 150 breaths/min, a positive end expiratory pressure of 3 cm H2O, and a FiO2 of 50%. Following two recruitment deep inflations of sustained inspiration up to a pressure of 30 cm H2O for 3 seconds, 10 mM GSNO or saline vehicle was aerosolized over 10 seconds using an ultrasonic nebulizer (Aeroneb; SCIREQ) diverted into the ventilator's inspiratory flow. Inhaled GSNO concentration was chosen based upon the published studies in ventilated guinea pigs and human trials in cystic fibrosis. After 5 minutes had elapsed, two recruitment deep inflations were again delivered, and increasing methacholine doses of 0, 12.5, 25, 50, 100, and 200 mg/mL were similarly aerosolized over 10 seconds to generate a dose-response curve. Using computer software (flexiWare 5.1, Version 7.2, SCIREQ), five measurements of respiratory system resistance (Rrs) were calculated by a 2.5 Hz single-frequency forced oscillation maneuver (Snapshot 150), and an average was reported for each methacholine dose. Respiratory mechanics were measured in both 3-week-old mice immediately following sustained hyperoxia exposure and separate 6-week-old mice that were recovered in room air following the initial 3 weeks of hyperoxia exposure.
Data are expressed as means±S.E.M. A minimum of two litters or experiments was used for each study; n represent individual animals or cell transfections. Data containing two groups were first tested for normality and variance and then analyzed by two sample student t test, Welch's t test, or Mann-Whitney U test, as appropriate. For multiple comparisons, analysis of variance with Tukey-Kramer post hoc test was used. Alterations in airway reactivity with increasing doses of methacholine were compared by two-way analysis of variance repeated-measures analysis with Tukey-Kramer post hoc comparisons using a fixed-sequence method from highest to lowest methacholine dose. P, 0.05 was considered statistically significant.

[2] = tested on: room air-exposed mice; experiment: Lung mechanics: methacholine challenge in room air-exposed mice, flexiVent Rrs; type: in vivo, C57BL/6 mice; settings: both ages (3 and 6 weeks), GSNO pretreatment, data not shown
Protocol: Animal protocols were approved by the Institutional Animal Care and Use Committee at Case Western Reserve University (Cleveland, Ohio). Timed pregnant C57BL/6 mice (Charles River Laboratories, Wilmington, Mass.) were maintained on 12-hour light-dark cycles with ad libitum standard food and water. Within 24 hours of birth, litters were pooled and randomized into exposure groups. Paired with a nursing dam, pups were raised in 60% oxygen or room air (21%) for 21 days. Hyperoxia-exposed animals were housed in standard cages placed in a 38-L Plexiglas chamber with a continuous flow of blended oxygen (2 L/min). Oxygen concentrations were monitored twice daily via an oxygen analyzer (miniOX I; MSA Medical, Gurnee, Ill.). […]
Under general anesthesia (i.p. ketamine/xylazine), mice were placed supine on a heated surgical table, tracheostomized, and ventilated via a 19-gauge blunt-tip cannula with a commercial rodent ventilator (flexiVent; SCIREQ, Montreal, Canada). […] Using computer software (flexiWare 5.1, Version 7.2, SCIREQ), five measurements of respiratory system resistance (Rrs) were calculated by a 2.5 Hz single-frequency forced oscillation maneuver (Snapshot 150), and an average was reported for each methacholine dose. […]
Data are expressed as means±S.E.M. A minimum of two litters or experiments was used for each study; n represent individual animals or cell transfections. […]

[3] = Gaston et al. 1994; cited from earlier work

Row | SMILES | Rrs in response to aerosolized methacholine challenge (airway hyperreactivity) ([1]; pretreatment 10 mM GSNO aerosol over 10 seconds) | Rrs increase in hyperoxia, methacholine dose response (FIG. 5A-B) ([1]; 10 mM GSNO aerosol) | Rrs in response to aerosolized methacholine challenge (airway hyperresponsiveness) ([1]; pretreatment 10 mM GSNO aerosol) | Rrs compared with room air saline-treated controls [2] | bronchodilator potency relative to theophylline [3] [fold] | Rrs in response to aerosolized methacholine challenge (airway hyperreactivity) ([1]; single 1 mg/kg i.p. injection the day prior) | Rrs increase in hyperoxia, methacholine dose response (FIG. 5A-B) ([1]; 1 mg/kg N6022 injection) | Rrs in response to aerosolized methacholine challenge (airway hyperresponsiveness) ([1]; 1 mg/kg i.p. injection)
1 | N[C@@H](CCC(=O)N[C@@H](CSN=O)C(=O)NCC(=O)O)C(=O)O [GSNO, S-nitrosoglutathione] | attenuated these changes, such that this group was no longer significantly different from room air controls, except at the highest methacholine dose (200 mg/mL) | attenuated these changes | remained effective in attenuating the hyperoxia induced airway hyperresponsiveness | did not significantly change Rrs | 100 |  |  | 
2 | Cc1cc(C(N)=O)ccc1-n1c(CCC(=O)O)ccc1-c1ccc(-n2ccnc2)cc1 [N6022, reference compound] |  |  |  |  |  | attenuated these changes as well, such that this group was no longer significantly different from room air controls at all methacholine doses | attenuated these changes | remained effective in attenuating the hyperoxia induced airway hyperresponsiveness
